Data taken from patent publication US8394954B2, “Benzophenone hybrids as anticancer agents and processes for the preparation thereof” (Council of Scientific & Industrial Research, priority 2007, dated 2013).

Key:
[1] = tested on: duplex-form calf thymus DNA (CT-DNA); test: Thermal denaturation studies with CT-DNA; format: binding; conditions: [BPD]:[DNA] molar ratio 1:5, CT-DNA 100 μM, ligand 20 μM, pH 7.00
Protocol: Compounds were subjected to thermal denaturation studies with duplex-form calf thymus DNA (CT-DNA). Working solutions in aqueous buffer (10 mM NaH2PO4/Na2HPO4, 1 mM Na2EDTA, pH 7.00+0.01) containing CT-DNA (100 μm in phosphate) and the BPD (20 μm) were prepared by addition of concentrated BPD solutions in DMSO to obtain a fixed [BPD]/[DNA] molar ratio of 1:5. The DNA-BPD solutions were incubated at 37° C. for 0, 18, and 36 h prior to analysis. Samples were monitored at 260 nm using a Beckman DU-7400 spectrophotometer fitted with high performance temperature controller, and heating was applied at 1° C. min-1 in the 40-90° C. range. DNA helix coil transition temperatures (Tm) were obtained from the maxima in the (dA260)/dT derivative plots. Results are given as the mean±standard deviation from three determinations and are corrected for the effects of DMSO co-solvent using a linear correction term. Drug-induced alterations in DNA melting behavior are given by: ΔTm=Tm(DNA+BPD)−Tm(DNA alone), where the Tm value for the BPD-free CT-DNA is 69.0±0.01.

[2] = tested on: sixty human tumor cells derived from nine cancer types; test: NCI in vitro anticancer screen, 48 h exposure, SRB assay, mean over all lines; format: cell-based; conditions: for GI50: Homo sapiens, wide spectrum of activity against sixty cell lines in nine cell panels; for Log10LC50 mean graph midpoint (MG_MID) / Log10GI50 mean graph midpoint (MG_MID) / Log10TGI mean graph midpoint (MG_MID): human tumor cell lines, 48 h exposure; for Log10LC50 mean graph midpoint (MG_MID): 50% cell death; for Log10GI50 mean graph midpoint (MG_MID): 50% cell growth inhibition; for Log10TGI mean graph midpoint (MG_MID): total cell growth inhibition
Protocol: (§1) Compounds described herein were evaluated for in vitro anticancer activity. Particularly the 6a, 6b, 6d, 6h, 8a and 8b compounds were evaluated for in vitro anticancer activity against sixty human tumor cells derived from nine cancer types (leukemia, non-small-cell lung, colon, […], ovarian, prostate, and breast cancer) as shown in (Table 2 and 3). For the compound, dose response curves for each cell line were measured at a minimum of five concentrations at 10 fold dilutions. A protocol of 48 h continuous drug exposure was used and a sulforhodamine B (SRB) protein assay was used to estimate cell viability or growth. The concentration causing 50% cell growth inhibition (GI50), total cell growth inhibition (TGI 0% growth) and 50% cell death (LC50, −50% growth) compared with the control was calculated.

[3] = tested on: Leukemia cancer cell lines; test: NCI in vitro anticancer screen, leukemia panel; format: cell-based, human; conditions: Homo sapiens, average of six to nine cell lines, read-out: Log GI50 (concentration in mol/L causing 50% growth inhibition) (converted)
Protocol: as §1

[4] = tested on: Nonsmall-cell-lung cancer cell lines; test: NCI in vitro anticancer screen, non-small-cell lung panel; format: cell-based, human; conditions: Homo sapiens, average of six to nine cell lines, read-out: Log GI50 (concentration in mol/L causing 50% growth inhibition) (converted)
Protocol: as §1

[5] = tested on: Colon cancer cell lines; test: NCI in vitro anticancer screen, colon panel; format: cell-based, human; conditions: Homo sapiens, average of six to nine cell lines, read-out: Log GI50 (concentration in mol/L causing 50% growth inhibition) (converted)
Protocol: as §1

[6] = tested on: CNS cancer cell lines; test: NCI in vitro anticancer screen, CNS panel; format: cell-based, human; conditions: Homo sapiens, average of six to nine cell lines, read-out: Log GI50 (concentration in mol/L causing 50% growth inhibition) (converted)
Protocol: as §1

[7] = tested on: Melanoma cancer cell lines; test: NCI in vitro anticancer screen, melanoma panel; format: cell-based, human; conditions: Homo sapiens, average of six to nine cell lines, read-out: Log GI50 (concentration in mol/L causing 50% growth inhibition) (converted)
Protocol: as §1

[8] = tested on: Ovarian cancer cell lines; test: NCI in vitro anticancer screen, ovarian panel; format: cell-based, human; conditions: Homo sapiens, average of six to nine cell lines, read-out: Log GI50 (concentration in mol/L causing 50% growth inhibition) (converted)
Protocol: as §1

[9] = tested on: Renal cancer cell lines; test: NCI in vitro anticancer screen, renal panel; format: cell-based, human; conditions: Homo sapiens, average of six to nine cell lines, read-out: Log GI50 (concentration in mol/L causing 50% growth inhibition) (converted)
Protocol: as §1

[10] = tested on: Prostate cancer cell lines; test: NCI in vitro anticancer screen, prostate panel; format: cell-based, human; conditions: Homo sapiens, average of six to nine cell lines, read-out: Log GI50 (concentration in mol/L causing 50% growth inhibition) (converted)
Protocol: as §1

[11] = tested on: Breast cancer cell lines; test: NCI in vitro anticancer screen, breast panel; format: cell-based, human; conditions: Homo sapiens, average of six to nine cell lines, read-out: Log GI50 (concentration in mol/L causing 50% growth inhibition) (converted)
Protocol: as §1

[12] = tested on: human cancer cell lines of colon (Colo205), lung (Hop-62), cervix (SiHa), prostate (DU145, PC3), oral (DWD, HT1080), and breast (MCF7, Zr-75-1) origin; test: In vitro evaluation of cytotoxic activity in selected human cancer cell lines, 48 h exposure; format: cell-based; conditions: 48 h continuous drug exposure
Protocol: In vitro evaluation of cytotoxic activity. Compounds 6a, 6b, 6d, 6e, 8a and 8b were evaluated for in vitro anticancer activity against nine human tumor cells derived from six cancer types (colon, prostate, oral, lung, cervix and breast cancer) as shown in Table 2. […] Compounds 6a, 6b, 6d, 6e, 8a and 8b have been evaluated for their in vitro cytotoxicity in selected human cancer cell lines of colon (Colo205), lung (Hop-62), cervix (SiHa), prostate (DU145, PC3), oral (DWD, HT1080), and breast (MCF7, Zr-75-1) origin. A protocol of 48 h continuous drug exposure has been used and an […] has been used to estimate cell viability or growth. The results are expressed as percent of cell growth determined relative to that of untreated control cells

Row | Compound | ΔTm after incubation at 37° C. for 0 h [1] [°C] | ΔTm after incubation at 37° C. for 18 h [1] [°C] | ΔTm after incubation at 37° C. for 36 h [1] [°C] | GI50 [2] [µM] | Log10LC50 mean graph midpoint (MG_MID) [2] | Log10GI50 mean graph midpoint (MG_MID) [2] | Log10TGI mean graph midpoint (MG_MID) [2] | GI50 [3] [µM] | GI50 [4] [µM] | GI50 [5] [µM] | GI50 [6] [µM] | GI50 [7] [nM] | GI50 [8] [µM] | GI50 [9] [nM] | GI50 [10] [µM] | GI50 [11] [µM] | cytotoxicity against some cancer cell lines [12]
1 | COc1cc2c(cc1O)N=CC1CCCN1C2=O (stereo not shown) [DC-81, reference compound] | 0.3 | 0.7 |  |  |  |  |  |  |  |  |  |  |  |  |  |  | 
2 | O=C(CN1CCN(c2ccccn2)CC1)Nc1ccc(Cl)cc1C(=O)c1ccccc1Cl [Compound 6a, N1-[4-chloro-2-(2-chlorobenzoyl)phenyl]-2-[4-(2-pyridyl)piperazino]acetamide] | 1.2 | 1.7 | 2.2 | < 20 | −4.35 | −6.51 | −6.54 | 3.55 | 2.51 | 5.75 | 5.62 | 1290 | 6.76 | 1550 | 1.78 | 3.89 | promising cytotoxicity
3 | O=C(c1ccccc1)c1cc(Cl)ccc1OCCCCN1CCN(CCCCOc2ccc(Cl)cc2C(=O)c2ccccc2)CC1 [Compound 8b] | 1.6 | 2.6 | 2.9 | < 20 | −5.25 | −6.35 | −5.51 | 0.631 | 3.24 |  | 4.17 |  | 5.75 | 2570 | 3.16 | 3.47 | 
4 | COc1cc(/C=C/C(=O)c2ccc(F)cc2)ccc1OCCCN1CCN(CC(=O)Nc2ccc(Cl)cc2C(=O)c2ccccc2Cl)CC1 [Compound 8] | 1.5 | 2.3 | 2.4 |  |  |  |  |  |  |  |  |  |  |  |  |  | 
5 | O=C(CN1CCN(c2ncccn2)CC1)Nc1ccc(Cl)cc1C(=O)c1ccccc1Cl [Compound 6b, N1-[4-chloro-2-(2-chlorobenzoyl)phenyl]-2-[4-(2-pyrimidinyl)piperazino]acetamide] | 1.5 | 2.1 | 2.6 |  | −5.73 | −6.57 | −6.89 | 5.5 | 3.63 | 2.14 | 5.89 | 1780 | 5.75 | 5620 | 16.6 | 6.76 | 
6 | O=C(CN1CCN(CCCN2CCN(CC(=O)Nc3ccc(Cl)cc3C(=O)c3ccccc3Cl)CC2)CC1)Nc1ccc(Cl)cc1C(=O)c1ccccc1Cl [Compound 6g] | 1.6 | 2.6 | 2.9 |  |  |  |  |  |  |  |  |  |  |  |  |  | 
7 | COc1ccccc1N1CCN(CC(=O)Nc2ccc(Cl)cc2C(=O)c2ccccc2Cl)CC1 [Compound 6c, N1-[4-chloro-2-(2-chlorobenzoyl)phenyl]-2-[4-(2-methoxyphenyl)piperazino]acetamide] | 1.4 | 1.6 | 2.3 |  |  |  |  |  |  |  |  |  |  |  |  |  | promising cytotoxicity
8 | O=C(CN1CCN(CC(=O)Nc2ccc(Cl)cc2C(=O)c2ccccc2Cl)CC1)Nc1ccc(Cl)cc1C(=O)c1ccccc1Cl [Compound 6f, N1-[4-chloro-2-(2-chlorobenzoyl)phenyl]-2-(4-2-[4-chloro-2-(2-chlorobenzoyl)anilino]-2-oxoethylpiperazino)acetamide] | 1.3 | 2.1 | 3.0 |  |  |  |  |  |  |  |  |  |  |  |  |  | 
